In patent publication US12528790B2, “Amide derivative having antiviral activity” (Shionogi & Co., Ltd., priority 2020, dated 2026):
Like-named read-outs stand apart in the source and are kept apart here.

Assays:
[1] = system: RSV A2 strain; assay: In vitro CPE (CytoPathic Effect) inhibition effect evaluation test, RSV type A; assay type: cell-based; conditions: inhibitory effect against RSV type A (RSV A2 strain), HEp-2 cells, CPE inhibition, read-out: EC50
How it was run: (§1)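 EC50 is the concentration giving 50% inhibition of virus-induced cytopathic effect, fitted by nonlinear regression from CellTiter-Glo 2.0 viability. Compounds in 3-fold series were co-incubated at 37 °C with HEp-2 cells and RSV: A2 strain for 4 days, B (Wash/18537) for 5 days; uninfected wells served as control.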

[2] = system: RSV B (Wash/18537 strain); assay: In vitro CPE (CytoPathic Effect) inhibition effect evaluation test, RSV type B; assay type: cell-based; conditions: inhibitory effect against RSV type B, CPE inhibition, read-out: EC50
How it was run: as §1

[3] = human respiratory syncytial virus

O=C(NC1(C(=O)O)C2CC3CC(C2)CC1C3)c1ccc(-c2cn(S(=O)(=O)C3CC3)c3cc(OC4CCN(c5ncccn5)CC4)ccc23)nc1C(F)(F)F (stereo not drawn) [Compound I-272]
EC50 [1, 3]: < 10 nM
EC50 [2, 3]: 10 to 100 nM

O=C(NC1(C(=O)O)C2CC3CC(C2)CC1C3)c1cnc(N2CC3(CCOCC3)c3cc(OC4CCN(c5ncc(F)cn5)CC4)ccc32)nc1C(F)(F)F (stereo not drawn) [Compound I-275]
EC50 [1, 3]: < 10 nM
EC50 [2, 3]: < 10 nM

N#Cc1cc(C(=O)NC2(C(=O)O)C3CC4CC(C3)CC2C4)c(C(F)(F)F)nc1N1CC2(CCOCC2)c2cc(OC3CCN(c4ncccn4)CC3)ccc21 (stereo not drawn) [Compound I-276]
EC50 [1, 3]: < 10 nM
EC50 [2, 3]: < 10 nM

O=C(NC1(C(=O)O)C2CC3CC(C2)CC1C3)c1cnc(N2CC3(CCOCC3)c3cc(C(=O)N4CCN(c5ncccn5)CC4)ccc32)nc1C(F)(F)F (stereo not drawn) [Compound I-353]
EC50 [1]: < 10 nM
EC50 [2]: < 10 nM

O=C(NC1(C(=O)O)C2CC3CC(C2)CC1C3)c1cnc(-c2cn(C3CCC(F)(F)CC3)c3cc(OC4CCC5(CC4)CN(CC(F)(F)F)C5)ccc23)nc1C(F)(F)F (stereo not drawn) [Compound I-370]
EC50 [1, 3]: < 10 nM
EC50 [2, 3]: 10 to 100 nM

O=C(NC1(C(=O)O)C2CC3CC(C2)CC1C3)c1cnc(-c2cn(C3CC3)c3cc(OC4CCN(c5ncc(F)cn5)CC4)ccc23)nc1C(F)(F)F (stereo not drawn) [Compound I-379]
EC50 [1, 3]: < 10 nM
EC50 [2, 3]: < 10 nM

CC(F)(F)c1nc(N2CC3(CCCCC3)c3cc(OC4CCN(c5ncccn5)CC4)ccc32)ncc1C(=O)NC1(C(=O)O)C2CC3CC(C2)CC1C3 (stereo not drawn) [Compound I-380]
EC50 [1, 3]: < 10 nM
EC50 [2, 3]: < 10 nM

O=C(NC1(C(=O)O)C2CC3CC(C2)CC1C3)c1cnc(N2CC3(CCCCC3)c3cc(OC4CCN(CC(F)(F)F)CC4)ccc32)nc1C(F)(F)F (stereo not drawn) [Compound I-382]
EC50 [1, 3]: < 10 nM
EC50 [2, 3]: 10 to 100 nM

O=C(NC1(C(=O)O)C2CC3CC(C2)CC1C3)c1cnc(N2CC3(CCOCC3)c3cc(OC4CCN(CC(F)(F)F)CC4)ccc32)nc1C(F)(F)F (stereo not drawn) [Compound I-384]
EC50 [1, 3]: < 10 nM
EC50 [2, 3]: < 10 nM

O=C(NC1(C(=O)O)C2CC3CC(C2)CC1C3)c1cnc(N2CC3(CCCCC3)c3cc(OC4CCN(C5CC(F)(F)C5)CC4)ccc32)nc1C(F)(F)F (stereo not drawn) [Compound I-393]
EC50 [1, 3]: < 10 nM
EC50 [2, 3]: 10 to 100 nM

CC(F)(F)c1nc(N2CC3(CCCCC3)c3cc(OC4CCN(c5ncc(F)cn5)CC4)ccc32)ncc1C(=O)NC1(C(=O)O)C2CC3CC(C2)CC1C3 (stereo not drawn) [Compound I-396]
EC50 [1, 3]: < 10 nM
EC50 [2, 3]: < 10 nM

O=C(NC1(C(=O)O)C2CC3CC(C2)CC1C3)c1cnc(N2CC3(CCCCC3)c3cc(OC4CCC5(CC4)COC5)ccc32)nc1C(F)(F)F (stereo not drawn) [Compound I-399]
EC50 [1, 3]: < 10 nM
EC50 [2, 3]: 10 to 100 nM

CC(F)(F)c1nc(N2CC3(CCCCC3)c3cc(OC4CCN(C5CC(F)(F)C5)CC4)ccc32)ncc1C(=O)NC1(C(=O)O)C2CC3CC(C2)CC1C3 (stereo not drawn) [Compound I-400]
EC50 [1, 3]: < 10 nM
EC50 [2, 3]: 10 to 100 nM

CC(F)(F)c1nc(N2CC3(CCCCC3)c3cc(OC4CCC5(CC4)COC5)ccc32)ncc1C(=O)NC1(C(=O)O)C2CC3CC(C2)CC1C3 (stereo not drawn) [Compound I-401]
EC50 [1, 3]: < 10 nM
EC50 [2, 3]: 10 to 100 nM

O=C(NC1(C(=O)O)C2CC3CC(C2)CC1C3)c1cnc(N2CC3(CCOCC3)c3cc(OC4CCN(c5ncc(F)cn5)CC4)ncc32)nc1C(F)(F)F (stereo not drawn) [Compound I-402]
EC50 [1, 3]: < 10 nM
EC50 [2, 3]: < 10 nM

O=C(NC1(C(=O)O)C2CC3CC(C2)CC1C3)c1cnc(-c2cn(C3CCC(F)(F)CC3)c3cc(OC4CC5(C4)CN(CC(F)(F)F)C5)ccc23)nc1C(F)(F)F (stereo not drawn) [Compound I-406]
EC50 [1, 3]: < 10 nM
EC50 [2, 3]: 10 to 100 nM

O=C(NC1(C(=O)O)C2CC3CC(C2)CC1C3)c1cnc(-c2cn(C3CCC(F)(F)CC3)c3cc(OC4CC5(C4)CN(c4ncc(F)cn4)C5)ccc23)nc1C(F)(F)F (stereo not drawn) [Compound I-407]
EC50 [1, 3]: < 10 nM
EC50 [2, 3]: 100 to 5000 nM

O=C(NC1(C(=O)O)C2CC3CC(C2)CC1C3)c1cnc(-c2cn(C3CCC(F)(F)CC3)c3cc(O[C@H]4CC[C@@H](N5CC(F)(F)C5)CC4)ccc23)nc1C(F)(F)F (stereo partly drawn) [Compound I-415]
EC50 [1, 3]: < 10 nM
EC50 [2, 3]: < 10 nM

O=C(NC1(C(=O)O)C2CC3CC(C2)CC1C3)c1cnc(-c2cn(C3CCC(F)(F)CC3)c3cc(C(=O)N4CCN(CC(F)(F)F)CC4)ccc23)nc1C(F)(F)F (stereo not drawn) [Compound I-418]
EC50 [1, 3]: < 10 nM
EC50 [2, 3]: < 10 nM

CCC(CC)n1cc(-c2ncc(C(=O)NC3(C(=O)O)C4CC5CC(C4)CC3C5)c(C(F)(F)F)n2)c2ccc(OC3CCN(c4ncc(F)cn4)CC3)cc21 (stereo not drawn) [Compound I-421]
EC50 [1, 3]: < 10 nM
EC50 [2, 3]: < 10 nM

CC(F)(F)CN1CCC(Oc2ccc3c(-c4ncc(C(=O)NC5(C(=O)O)C6CC7CC(C6)CC5C7)c(C(F)(F)F)n4)cn(C4CCC(F)(F)CC4)c3c2)CC1 (stereo not drawn) [Compound I-422]
EC50 [1, 3]: < 10 nM
EC50 [2, 3]: < 10 nM
